Experimental findings from patent US8574563B2 (Bristol-Myers Squibb Company, priority 2006, dated 2013) are described below.

The first assay has as its system HCV 1b-377-neo replicon cells. In words: HCV replicon assay, HCV 1b-377-neo replicon cells (1b FRET). Type of assay: cell-based, Hepatitis C virus genotype 1b. Particulars: HCV 1b-377-neo replicon cells; HCV 1b genotype; read-out: EC50 range against HCV 1b (Table 2, Range). The procedure, abridged:
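Compounds tested in HCV genotype 1b-377-neo replicon cells with a FRET read-out. Cells resistant to a reference NS5A inhibitor through a Y2065H NS5A mutation were run alongside wild-type cells.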
A general note: In antiviral work, replicon cells carry a viral genome segment that copies itself.
What is called EC50 is the concentration at which the effect is half-maximal. Regarding `COC(=O)N[C@@H](C(=O)N1CCC[C@H]1c1ncc(-c2ccc(-c3ccc(-c4cnc([C@@H]5CCCN5C(=O)[C@H]5CCC(=O)N5)[nH]4)cc3)cc2)[nH]1)c1ccccc1` [Example 84-3], the EC50 was 0.001 to 0.999 nM.

The same assay, now with this note: Hepatitis C virus, HCV 1b-377-neo replicon cells; HCV 1b genotype; read-out: EC50 range against HCV 1b (Table 2, Range).
In the case of `COC(=O)N[C@@H](C(=O)N1CCC[C@H]1c1ncc(-c2ccc(-c3ccc(-c4cnc([C@@H]5CCCN5C(=O)[C@H](C)N(C)C)[nH]4)cc3)cc2)[nH]1)c1ccccc1` [Example 76, methyl ((1R)-2-((2S)-2-(5-(4′-(2-((2S)-1-(N,N-dimethyl-L-alanyl)-2-pyrrolidinyl)-1H-imidazol-5-yl)-4-biphenylyl)-1H-imidazol-2-yl)-1-pyrrolidinyl)-2-oxo-1-phenylethyl)carbamate], the concentration giving a half-maximal response (EC50) was in the range of 0.001 to 0.999 nM.
The same measure, in the same setting: under `COC(=O)N[C@H](Cc1ccccc1)C(=O)N1CCC[C@H]1c1ncc(-c2ccc(-c3ccc(-c4cnc([C@@H]5CCCN5C(=O)[C@@H](Cc5ccccc5)NC(=O)OC)[nH]4)cc3)cc2)[nH]1` [cj-145, methyl ((1R)-1-benzyl-2-((2S)-2-(5-(4′-(2-((2S)-1-((2R)-2-((methoxycarbonyl)amino)-3-phenylpropanoyl)-2-pyrrolidinyl)-1H-imidazol-5-yl)-4-biphenylyl)-1H-imidazol-2-yl)-1-pyrrolidinyl)-2-oxoethyl)carbamate] stands 1 to 99 nM; under `CN(C)[C@@H](C(=O)N1CCC[C@H]1c1ncc(-c2ccc(-c3ccc(-c4cnc([C@@H]5CCCN5C(=O)[C@@H](c5ccccc5)N(C)C)[nH]4)cn3)cc2)[nH]1)c1ccccc1` [Example 132, (1R)-2-((2S)-2-(5-(6-(4-(2-((2S)-1-((2R)-2-(dimethylamino)-2-phenylacetyl)-2-pyrrolidinyl)-1H-imidazol-5-yl)phenyl)-3-pyridinyl)-1H-imidazol-2-yl)-1-pyrrolidinyl)-N,N-dimethyl-2-oxo-1-phenylethanamine], 0.001 to 0.999 nM; under `CO[C@@H](C(=O)N1CCC[C@H]1c1ncc(-c2ccc(-c3ccc(-c4cnc([C@@H]5CCCN5C(=O)[C@@H](c5ccccc5)N5CCCCC5)[nH]4)cc3)cc2)[nH]1)c1ccccc1` [Example 107-19, 1-((1R)-2-((2S)-2-(5-(4′-(2-((2S)-1-((2R)-2-methoxy-2-phenylacetyl)-2-pyrrolidinyl)-1H-imidazol-5-yl)-4-biphenylyl)-1H-imidazol-2-yl)-1-pyrrolidinyl)-2-oxo-1-phenylethyl) piperidine], 0.001 to 0.999 nM.
Still for that read-out and setting: under `O=C(NC1CCCC1)N[C@@H](C(=O)N1C[C@H](O)C[C@H]1c1ncc(-c2ccc(-c3ccc(-c4cnc([C@@H]5C[C@@H](O)CN5C(=O)[C@H](NC(=O)NC5CCCC5)c5ccccc5)[nH]4)cc3)cc2)[nH]1)c1ccccc1` [Example 24-15, N′,N′′′-(4,4′-biphenyldiylbis(1H-imidazole-5,2-diyl((2S,4R)-4-hydroxy-2,1-pyrrolidinediyl)((1R)-2-oxo-1-phenyl-2,1-ethanediyl)))bis(1-cyclopentylurea)] stands 1 to 99 nM; under `CCN(CC)[C@@H](C(=O)N1CC(F)(F)C[C@H]1c1nc(-c2ccc(-c3ccc(-c4cnc([C@@H]5CCCN5C(=O)[C@@H](c5ccccc5)N(CC)CC)[nH]4)c(F)c3)cc2)c[nH]1)c1ccccc1` [Example J14e.1, (1R)-2-((2S)-2-(4-(4′-(2-((2S)-1-((2R)-2-(diethylamino)-2-phenylacetyl)-4,4-difluoro-2-pyrrolidinyl)-1H-imidazol-4-yl)-3-fluoro-4-biphenylyl)-1H-imidazol-2-yl)-1-pyrrolidinyl)-N,N-diethyl-2-oxo-1-phenylethanamine], 0.001 to 0.999 nM.
Take `CC(C)[C@H](O)C(=O)N1CCC[C@H]1c1ncc(-c2ccc(-c3ccc(-c4cnc([C@@H]5CCCN5C(=O)[C@@H](O)C(C)C)[nH]4)cc3)cc2)[nH]1` [LS4, (2S,2′S)-1,1′-(4,4′-biphenyldiylbis(1H-imidazole-5,2-diyl(2S)-2,1-pyrrolidinediyl))bis(3-methyl-1-oxo-2-butanol)]: the EC50 was in the range of 1 to 99 nM.
Same read-out and setting: under `COC(=O)N[C@H](C(=O)N1CCC[C@H]1c1nc(-c2cnc(-c3ccc(-c4cnc([C@@H]5CCCN5C(=O)[C@@H](NC(=O)OC)C(C)C)[nH]4)c(F)c3)nc2)c[nH]1)C(C)C` [Example D68, methyl ((1S)-1-(((2S)-2-(5-(2-fluoro-4-(5-(2-((2S)-1-((2S)-((methoxycarbonyl)amino)-3-methylbutanoyl)-2-pyrrolidinyl)-1H-imidazol-5-yl)-2-pyrimidinyl)phenyl)-1H-imidazol-2-yl)-1-pyrrolidinyl)carbonyl)-2-methylpropyl) carbamate] stands 0.001 to 0.999 nM.
Still for that read-out and setting: the result for `COC(=O)N[C@@H](C)C(=O)N1CCC[C@H]1c1ncc(-c2ccc(-c3ccc(-c4cnc([C@@H]5CCCN5C(=O)[C@H](Cc5ccncc5)NC(=O)OC)[nH]4)cc3)cc2)[nH]1` [cj-90, methyl ((1S)-2-((2S)-2-(5-(4′-(2-((2S)-1-(N-(methoxycarbonyl)-L-alanyl)-2-pyrrolidinyl)-1H-imidazol-5-yl)-4-biphenylyl)-1H-imidazol-2-yl)-1-pyrrolidinyl)-2-oxo-1-(4-pyridinylmethyl)ethyl)carbamate] reads 0.001 to 0.999 nM; that for `CCN(CC)[C@@H](C(=O)N1CCC[C@H]1c1ncc(-c2ccc(-c3ccc(-c4cnc([C@@H]5CCCN5C(=O)[C@H](Cc5ccccn5)NC(=O)OC)[nH]4)cc3)cc2)[nH]1)c1ccccc1` [cj-68, methyl ((1S)-2-((2S)-2-(5-(4′-(2-((2S)-1-((2R)-2-(diethylamino)-2-phenylacetyl)-2-pyrrolidinyl)-1H-imidazol-5-yl)-4-biphenylyl)-1H-imidazol-2-yl)-1-pyrrolidinyl)-2-oxo-1-(2-pyridinylmethyl)ethyl)carbamate], 0.001 to 0.999 nM.
Same read-out and setting: the result for `CCN(CC)[C@H](C)C(=O)N1CCC[C@H]1c1ncc(-c2ccc(-c3ccc(-c4cnc([C@@H]5CCCN5C(=O)[C@H](NC(=O)OC)c5ccccc5)[nH]4)cc3)cc2F)[nH]1` [Example D48, methyl ((1R)-2-((2S)-2-(5-(4′-(2-((2S)-1-(N,N-diethyl-D-alanyl)-2-pyrrolidinyl)-1H-imidazol-5-yl)-3′-fluoro-4-biphenylyl)-1H-imidazol-2-yl)-1-pyrrolidinyl)-2-oxo-1-phenylethyl)carbamate] reads 0.001 to 0.999 nM.
Turning to `CCN(CC)[C@@H](C(=O)N1CCC[C@H]1c1ncc(-c2ccc(-c3ccc(-c4cnc([C@@H]5CCCN5C(=O)[C@@H](c5ccccc5)N5CCOCC5)[nH]4)cc3)cc2)[nH]1)c1ccccc1` [Example M48, (1R)-N,N-diethyl-2-((2S)-2-(5-(4′-(2-((2S)-1-((2R)-2-(4-morpholinyl)-2-phenylacetyl)-2-pyrrolidinyl)-1H-imidazol-5-yl)-4-biphenylyl)-1H-imidazol-2-yl)-1-pyrrolidinyl)-2-oxo-1-phenylethanamine], the concentration giving a half-maximal response (EC50) lay within 1 to 99 nM.
On the same count and under the same terms, the result for `COC(=O)N[C@@H](C(=O)N1CC2(CC2)C[C@H]1c1nc(-c2ccc(-c3ccc(-c4c[nH]c([C@@H]5CC6(CC6)CN5C(=O)[C@H](NC(=O)OC)C(C)C)n4)cc3)cc2)c[nH]1)C(C)C` [Example M149, methyl ((1R)-1-(((6S)-6-(4-(4′-(2-((6S)-5-((2R)-2-((methoxycarbonyl)amino)-3-methylbutanoyl)-5-azaspiro[2.4]hept-6-yl)-1H-imidazol-4-yl)-4-biphenylyl)-1H-imidazol-2-yl)-5-azaspiro[2.4]hept-5-yl)carbonyl)-2-methylpropyl)carbamate] reads 1 to 99 nM.
